These results are taken from patent publication US20080131406A1, “Angiotensin I Derivatives” (NATIONAL UNVERSITY OF SINGAPORE, priority 2005, published 2008).

The test system of assay [1] is neointima formation in catheter-injured carotid artery. Briefly: Neointima formation after balloon catheter injury of the left carotid artery in rats. The note with it: for % of Lumen Occlusion by Neointima (in catheter-injured carotid artery): mean ± SEM, 6 rats. It counts as in vivo, Sprague Dawley (SD) rats. From the text:
SD rats were subjected to left carotid artery injury by the balloon technique according to the method described by Indolfi et al (Circulation, 92:1230-1235 (1995)). In this procedure, rats were anesthetized with chloral hydrate (0.35 g/kg) and a balloon catheter (2F Fogarty, Edwards Laboratories) was introduced through the left external carotid artery into the common carotid artery. The balloon was inflated to a pressure of 2.2 kg/cm^2 by compressed carbogen gas mixture (95% O2 and 5% CO2) and passed three times (three cycles) along the common carotid artery. The catheter was removed, the left external carotid artery was ligated, and the wound was closed. Formation of neointima in the catheter-injured carotid artery occurred and slowed considerably after 14 days (Clowes and Clowes, Lab. Invest., 52:611-616 (1985)). The right common carotid artery was left intact and served as the control artery.
Following the surgery, each animal was placed in a cage. The animals had access to water and rat chow ad libitum. The animals were randomly divided into the control group and treatment group. Each group consisted of 6 animals. The treatment group was orally administered various doses of angiotensin IV (60-360 nmoles/kg/day or 46.5-279 μg/kg/day) dissolved in 0.5 ml saline for 13 days commencing on the day of surgery. Control animals were balloon catheterized animals that were administered saline instead of the angiotensin IV solution.
On the fourteenth day following balloon catheterization, animals were anesthetized as before and both the left and right common arteries of each rat were fixed by perfusion at 120 mm Hg with 100 ml of saline followed by 250 ml of 0.1 M phosphate buffer (pH 7.4) containing 4% paraformaldehyde and 1% glutaralaldehyde and processed for paraffin embedment. Sections of 10 μm thickness were prepared and stained with toluidine blue. Twenty of such sections were cut from the midportion of the artery towards the distal end and used for morphometric evaluation of neointima formation. The area of the medial smooth muscle cells, lumen, and neointima of each section was morphometrically quantitated using an image analysis system consisting of a BX40 light microscope (Olympus, Japan) fitted with a KY-F55B color video camera (JVC, Japan) and a Pentium 166 MHz/MMX microcomputer (Datamini, Singapore) installed with an Image Pro Plus 3.0 System (Media Cybernetics, USA) for Windows 95™. The extent of neointima formation was expressed as a percentage of occlusion of the lumen by the neointima.

In assay [2] the test system is experimentally-induced cardiac hypertrophic rats. Briefly: Cardiac hypertrophy induced by abdominal aorta coarctation in rats. It counts as in vivo, Sprague Dawley (SD) rats. The note with it: for Hypertrophy Index (ventricle weight in mg/body weight in g): aorta-coarcted rats, mean ± SEM, 10 rats. On the procedure: The experimental protocol for induction of cardiac hypertrophy in rats was carried out as described by Everett et al (Hypertension, 23:587-592 (1994)). In this procedure, each rat was anaesthetized with 7% w/v chloral hydrate (0.35 g/kg, intraperitoneally). An incision was made in the ventral abdominal wall to access the suprarenal portion of the abdominal aorta. This portion of the abdominal aorta was dissected free and a blunt 23-guage needle was placed adjacent to the aorta. A ligature was placed around the blunt needle and the aorta. The blunt needle was then removed, leaving the aorta constricted to the size of the needle. The resulting coarctation resisted the normal flow of blood from the heart to the lower portion of the body and placed an extra load on the heart. This extra load causes hypertrophy of the heart, especially the left ventricle.
Following surgery, each animal was placed in a cage. The animals had access to water and rat chow ad libitum. The animals were randomly divided into the control group and treatment group. Each group consisted of 10 animals. The treatment group was orally administered various doses of angiotensin IV (95-380 nmoles/kg/day or 74-294 μg/kg/day) dissolved in 0.5 ml saline for four days commencing on the day of surgery. Control animals with coarcted abdominal aorta were administered saline instead of the angiotensin IV solution. Sham animals were animals that underwent the same surgical operations but their aortas were not coarcted.
On the fifth day following surgery, animals were anaesthetised as before. The heart of each animal was then excised, the ventricles dissected and the weight of the ventricles was determined. The index of the ventricle weight (in mg) over the body weight of the animal (in g) was taken as the index of hypertrophy. For sham-operated animals the index was around 2.6, for aorta-coarcted animas the index was above 3.7.
Data were expressed as mean ±SEM. Significant differences were determined by one-way ANOVA and post hoc Newman Kleuf test. The accepted level of significance was p<0.05. […] The effect was dose-dependent and significant anti-cardiac hypertrophic action was brought about by an oral dose of 190 nmoles/kg/day (or 147 μg/kg/day).

As to `CC[C@H](C)[C@H](NC(=O)[C@H](Cc1ccc(O)cc1)NC(=O)[C@@H](N)C(C)C)C(=O)N[C@@H](Cc1cnc[nH]1)C(=O)N1CCC[C@H]1C(=O)N[C@@H](Cc1ccccc1)C(=O)O` [angiotensin IV], the “% of Lumen Occlusion by Neointima (in catheter-injured carotid artery)” value in assay [1] (60 nmole/kg/day oral for 13 days) is on record as 52 ± 5%; in assay [1] (120 nmole/kg/day oral for 13 days), 48 ± 1%; in assay [1] (240 nmole/kg/day oral for 13 days, significantly different from Control (p < 0.05)), “*43 ± 2%”; in assay [1] (360 nmole/kg/day oral for 13 days, significantly different from Control (p < 0.05)) it was “*44 ± 2%”. Also, in assay [1] (oral for 13 days, action dose-dependent, or 186 μg/kg/day), the “oral dose bringing about maximum anti-neointima action” value was 240 nmol/kg/day. Also, in assay [1] (oral, 13 days, catheter-injured carotid artery), the “effect on the thickness of the medial muscle layer” value is recorded as “no significant effect”. The “Hypertrophy Index (ventricle weight in mg/body weight in g)” value in assay [2] (95 nmole/kg/day oral for 4 days) is given as 3.73 ± 0.04; in assay [2] (190 nmole/kg/day oral for 4 days, significantly different from Control (p < 0.05)) it was “*3.23 ± 0.07”; in assay [2] (380 nmole/kg/day oral for 4 days, significantly different from Control (p < 0.05)) it was “*3.40 ± 0.07”. In addition, the “oral dose bringing about significant anti-cardiac hypertrophic action” value in assay [2] (oral, 4 days, effect dose-dependent, or 147 μg/kg/day) was determined as 190 nmol/kg/day.
